# Reference: ChEMBL document CHEMBL1123386, “Substituted-vinyl hydroxytriarylethylenes, 1-[4-[2-(diethylamino) ethoxy]phenyl]-1-(4-hydroxyphenyl)-2-phenylethylenes: synthesis and effects on MCF 7 breast cancer cell proliferation” (J Med Chem, 1986)
# pKd: −log10 of the molar value.
# System: MCF7
# Test: Compound was tested for binding affinity against nuclear ER in MCF-7 cell extracts
# Format: functional, cell-based, Homo sapiens
row,SMILES,pKd
1,CCN(CC)CCOc1ccc(/C(=C\c2ccccc2)c2ccc(O)cc2)cc1,8.95
2,CCN(CC)CCOc1ccc(/C(=C(/C#N)c2ccccc2)c2ccc(O)cc2)cc1,8.95
3,CC/C(=C(\c1ccc(O)cc1)c1ccc(OCCN(CC)CC)cc1)c1ccccc1,9.54
4,CCN(CC)CCOc1ccc(/C(=C(\c2ccccc2)[N+](=O)[O-])c2ccc(O)cc2)cc1,9.25
5,CCN(CC)CCOc1ccc(/C(=C(/Cl)c2ccccc2)c2ccc(O)cc2)cc1 [4-OH-ENCLOMIPHENE],9.96
6,CCN(CC)CCOc1ccc(/C(=C(/Br)c2ccccc2)c2ccc(O)cc2)cc1,9.44
